According to patent US10894777B2, “TG2 inhibitor piperazine compounds and uses thereof” (UNIVERSITY OF OTTAWA, priority 2016, dated 2021):

What was measured:
[1] = molecular target: T1, TG2 (Homo sapiens, UniProt P21980); test: Colorimetric transamidase activity assay (AL5 substrate), hTG2; assay type: biochemical; details: for kinact/KI: read-out: kinact/KI (10^3M^−1 min^−1); for enzyme inactivation, relative observed rate constants (kobs): high concentration of inhibitor (18 μM, FIG. 43)
T1 sequence (P21980 1-687): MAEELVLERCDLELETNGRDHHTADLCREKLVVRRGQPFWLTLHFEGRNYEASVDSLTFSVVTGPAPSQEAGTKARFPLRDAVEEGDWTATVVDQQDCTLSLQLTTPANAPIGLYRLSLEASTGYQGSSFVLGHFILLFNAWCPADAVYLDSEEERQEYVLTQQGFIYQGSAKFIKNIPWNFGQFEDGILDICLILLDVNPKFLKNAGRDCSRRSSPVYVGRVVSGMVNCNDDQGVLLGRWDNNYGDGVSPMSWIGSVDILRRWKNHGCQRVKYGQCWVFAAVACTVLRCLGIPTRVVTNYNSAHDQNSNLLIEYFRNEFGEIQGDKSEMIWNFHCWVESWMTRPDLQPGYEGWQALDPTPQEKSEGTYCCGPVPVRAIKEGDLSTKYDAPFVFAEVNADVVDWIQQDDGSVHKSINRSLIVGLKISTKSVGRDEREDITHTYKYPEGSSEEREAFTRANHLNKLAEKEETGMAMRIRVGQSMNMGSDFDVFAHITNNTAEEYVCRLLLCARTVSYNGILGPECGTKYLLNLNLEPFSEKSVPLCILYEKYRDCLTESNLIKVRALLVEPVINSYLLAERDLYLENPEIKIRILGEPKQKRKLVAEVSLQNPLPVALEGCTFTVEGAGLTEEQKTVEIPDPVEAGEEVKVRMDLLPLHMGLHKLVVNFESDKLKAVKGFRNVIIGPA
Protocol: In Vitro Assays. Colorimetric transamidase activity assay. The activities of hTG1, hTG2 and hTG6 were measured via a colorimetric assay using the chromogenic substrate Cbz-Glu(γ-p-nitrophenyl ester)Gly (AL5). The assay was conducted at 25° C. in 100 mM MOPS buffer (pH 6.5) containing 3.0 mM CaCl2 and 50 μM EDTA. […] A stock solution of AL5 was prepared in DMSO such that the final concentration of this co-solvent was constant at 2.5% v/v. Stock solutions of the inhibitors were made in the buffer system previously described. The reaction was initiated with the addition of 40-60 mU/mL of the respective enzyme (0.10 μM hTG1, 0.25 μM hTG2 or 0.32 μM hTG6). Product formation was monitored at 405 nm in a polystyrene 96-well microplate using a BioTek Synergy 4 plate reader. […] Observed first-order rate constants of inactivation (kobs) were determined from non-linear regression fit to a mono-exponential model (Equation 1) of the observed absorbance of the enzymatic hydrolysis product, p-nitrophenolate (pNP). […] Experiments were done in triplicate and variation between repeats was less than 30%.

[2] = molecular target: T1, TG2; test: Kinetic inactivation of purified recombinant human TG2, continuous spectrophotometric activity assay (Examples 3, 10); assay type: biochemical; design: made in house; details: Table 4; for kinact/KI: read-out: kinact/Ki (μM^−1 min^−1), for ^a no saturation observed, efficiency obtained from initial slope
Protocol: Kinetic studies were carried out in vitro, using purified recombinant human TG2 (Roy, I. et al., Protein Expr. Purif. 87: 41-46, 2013) and a direct, continuous spectrophotometric activity assay (Leblanc, A. et al., Biochemistry 40: 8335-8342, 2001).
Kinetics. Kinetic runs were performed at 25° C. in 100 mM MOPS buffer (pH 7.0) containing 3 mM CaCl2 and 50 μM EDTA. […] Stock solutions of the substrate and inhibitors were prepared in DMF such that the final concentration of this co-solvent was constant at 10% v/v. Reactions were initiated with the addition of enzyme with an activity of approximately 0.05 U/mL. Kinetic evaluation was carried out by the method of Stone and Hofsteenge (Stone, S. R. and Hofsteenge, J., Biochem. J. 230: 497-502, 1985). […] Observed first-order rate constants of inactivation were determined from non-linear regression, to a mono-exponential model. These rate constants were in turn fit to equation 1 by non-linear regression, providing the kinetic parameters
Kinetic parameters were determined as described above.

[3] = Table 7, read-out: kinact (converted)
[4] = Table 8, read-out: kinact (converted)
[5] = Table 5, read-out: kinact (converted)

Row | SMILES | kinact [2] [s⁻¹] | kinact/KI [2] [M⁻¹ s⁻¹] | melting point [°C] | kinact [1, 3] [s⁻¹] | kinact/KI ([1]; Table 7) [M⁻¹ s⁻¹] | further results
1 | C=CC(=O)NCCCC[C@H](NC(=O)OCc1ccccc1)C(=O)N1CCN(C(=O)c2ccccn2)CC1 [Compound 152, (S)-benzyl(6-acrylamido-1-oxo-1-(4-picolinoylpiperazin-1-yl)hexan-2-yl)carbamate] |  |  |  |  |  | kinact ([1]; Table 8): 0.0488 ± 0.00483 s⁻¹; kinact/KI (10^3M^−1 min^−1) ([1]; Table 8): 91.3 ± 17.9 10^3M^−1 min^−1
2 | C=CC(=O)NCCCC[C@H](NC(=O)OCc1ccccc1)C(=O)N1CCN(S(=O)(=O)Cc2ccccc2)CC1 [Compound 131, (S)-benzyl (6-acrylamido-1-(4-(benzylsulfonyl)piperazin-1-yl)-1-oxohexan-2-yl)carbamate] | 0.00907 | 1900 | 50 to 52 | 0.00783 | 582 | 
3 | C=CC(=O)NCC[C@H](NC(=O)OCc1ccccc1)C(=O)N1CCN(S(=O)(=O)c2cccc3c(N(C)C)cccc23)CC1 [Compound 116, (S)-benzyl (4-acrylamido-1-(4-((5-(dimethylamino)naphthalen-1-yl)sulfonyl)piperazin-1-yl)-1-oxobutan-2-yl)carbamate] |  |  |  |  |  | enzyme inactivation, relative observed rate constants (kobs) [1]: no significant enzyme inactivation was observed
4 | C=CC(=O)NCCCC[C@H](NC(=O)OCc1ccccc1)C(=O)N1CCN(S(=O)(=O)C2CCCCC2)CC1 [Compound 132, (S)-benzyl (6-acrylamido-1-(4-(cyclohexylsulfonyl)piperazin-1-yl)-1-oxohexan-2-yl)carbamate] | 0.0083 | 2430 |  | 0.0115 | 1050 | 
5 | C=CC(=O)NCCCC[C@H](NC(=O)OCc1ccccc1)C(=O)N1CCN(C(=O)Cc2ccccc2)CC1 [Compound 150, (S)-benzyl (6-acrylamido-1-oxo-1-(4-(2-phenylacetyl)piperazin-1-yl)hexan-2-yl)carbamate] |  |  | 48 to 49 |  |  | kinact [1, 4]: 0.0377 s⁻¹; kinact/KI ([1]; Table 8): 1880 M⁻¹ s⁻¹
6 | C=CC(=O)NCCCC[C@H](NC(=O)OCc1ccccc1)C(=O)N1CCN(S(=O)(=O)CC)CC1 [Compound 134, (S)-benzyl (6-acrylamido-1-(4-(ethylsulfonyl)piperazin-1-yl)-1-oxohexan-2-yl)carbamate] |  |  |  | 0.0237 | 657 | 
7 | C=CC(=O)NCCCC[C@H](NC(=O)OCc1ccccc1)C(=O)N1CCN(S(=O)(=O)c2ccc3ccccc3c2)CC1 [Compound 129, (S)-benzyl (6-acrylamido-1-(4-(naphthalen-2-ylsulfonyl)piperazin-1-yl)-1-oxohexan-2-yl)-carbamate] | 0.00643 | 2500 | 65 to 66 | 0.00633 | 955 | 
8 | C=CC(=O)NCCCC[C@H](NC(=O)OCc1ccccc1)C(=O)N1CCN(C(=O)c2ccncc2)CC1 [Compound 154, (S)-benzyl-(6-acrylamido-1-(4-isonicotinoylpiperazin-1-yl)-1-oxohexan-2-yl)carbamate] |  |  |  |  |  | kinact [1, 4]: 0.0238 s⁻¹; kinact/KI ([1]; Table 8): 617 M⁻¹ s⁻¹
9 | C=CC(=O)NCCCC[C@H](NC(=O)OCc1ccccc1)C(=O)N1CCN(S(=O)(=O)C(C)C)CC1 [Compound 133, (S)-benzyl(6-acrylamido-1-(4-(isopropylsulfonyl)piperazin-1-yl)-1-oxohexan-2-yl)carbamate] | 0.0115 | 2800 | 48 to 49 | 0.00833 | 912 | 
10 | C=CC(=O)NCCCC[C@H](NC(=O)OCc1ccccc1)C(=O)NCCCNS(=O)(=O)c1cccc2c(N(C)C)cccc12 [Compound 110, (S)-benzyl (6-acrylamido-1-((3-(5-(dimethylamino)naphthalene-1-sulfonamido)propyl)amino)-1-oxohexan-2-yl)carbamate] |  | 783 | 65 to 67 |  |  | kinact [1, 5]: 0.0142 s⁻¹; kinact/KI ([1]; Table 5): 460 M⁻¹ s⁻¹
11 | C=CC(=O)NCCCC[C@H](NC(=O)OCc1ccccc1)C(=O)N1CCN(S(C)(=O)=O)CC1 [Compound 135, (S)-benzyl(6-acrylamido-1-(4-(methylsulfonyl)piperazin-1-yl)-1-oxohexan-2-yl)carbamate] | 0.0153 | 2730 |  | 0.00833 | 1310 | 
12 | C=CC(=O)NCCCC[C@H](NC(=O)OCc1ccccc1)C(=O)NCCNS(=O)(=O)c1cccc2c(N(C)C)cccc12 [Compound 111, (S)-benzyl (6-acrylamido-1-((2-(5-(dimethylamino)naphthalene-1-sulfonamido)ethyl)amino)-1-oxohexan-2-yl)carbamate] | 0.0242 | 1030 |  |  |  | kinact [1, 5]: 0.0242 s⁻¹; kinact/KI ([1]; Table 5): 1020 M⁻¹ s⁻¹
13 | C=CC(=O)NCCC[C@H](NC(=O)OCc1ccccc1)C(=O)N1CCN(C(=O)c2ccccc2)CC1 [Compound 149, (S)-benzyl (5-acrylamido-1-(4-benzoylpiperazin-1-yl)-1-oxopentan-2-yl)carbamate] |  |  |  |  |  | kinact [1, 4]: 0.0795 s⁻¹; kinact/KI ([1]; Table 8): 2170 M⁻¹ s⁻¹
14 | C=CC(=O)NCCC[C@H](NC(=O)OCc1ccccc1)C(=O)N1CCN(S(=O)(=O)c2cccc3c(N(C)C)cccc23)CC1 [Compound 117, (S)-benzyl (5-acrylamido-1-(4-((5-(dimethylamino)naphthalen-1-yl)sulfonyl)piperazin-1-yl)-1-oxopentan-2-yl)carbamate] | 0.0134 | 1480 | 69 to 70 |  |  | kinact ([1]; Table 6, read-out: kinact (converted)): 0.0197 s⁻¹; enzyme inactivation, relative observed rate constants (kobs) [1]: reappearance of enzyme inhibition albeit only modestly; kinact/KI ([1]; Table 6): 412 M⁻¹ s⁻¹
15 | C=CC(=O)NCCCC[C@H](NC(=O)OCc1ccccc1)C(=O)N1CCN(S(=O)(=O)c2cccc3ccccc23)CC1 [Compound 128, (S)-benzyl 6-acrylamido-1-(4-(naphthalen-1-ylsulfonyl)piperazin-1-yl)-1-oxohexan-2-yl-carbamate] | 0.0082 | 2130 | 59 to 61 | 0.0065 | 620 | rate constant of inactivation relative to VA4 [1]: more than three-fold less
16 | C=CC(=O)NCCC[C@H](NC(=O)OCc1ccccc1)C(=O)N1CCN(C(C)=O)CC1 [Compound 151, (S)-benzyl(1-(4-acetylpiperazin-1-yl)-5-acrylamido-1-oxopentan-2-yl)carbamate] |  |  |  |  |  | kinact [1, 4]: 0.0343 s⁻¹; overall inhibition efficiency compared to sulfonamide counterpart ([1]; amide (Table 8) vs sulfonamide (Table 7)): almost three times less; kinact/KI ([1]; Table 8): 615 M⁻¹ s⁻¹
17 | C=CC(=O)NCCCC[C@H](NC(=O)OCc1ccccc1)C(=O)N1CCN(S(=O)(=O)c2ccccc2)CC1 [Compound 130, (S)-benzyl (6-acrylamido-1-oxo-1-(4-(phenylsulfonyl)piperazin-1-yl)hexan-2-yl)carbamate] | 0.0102 | 2180 |  | 0.00783 | 888 | 
18 | C=CC(=O)NCCCC[C@H](NC(=O)OCc1ccccc1)C(=O)N1CCN(C(=O)c2cccnc2)CC1 [Compound 153, (S)-benzyl (6-acrylamido-1-(4-nicotinoylpiperazin-1-yl)-1-oxohexan-2-yl)carbamate] |  |  |  |  |  | kinact [1, 4]: 0.024 s⁻¹; kinact/KI ([1]; Table 8): 1020 M⁻¹ s⁻¹
19 | C=CC(=O)NCCCC[C@H](NC(=O)OCc1ccccc1)C(=O)N1CCN(C(=O)c2ccc3ccccc3c2)CC1 [AA10, (S)-benzyl(1-(4-(2-naphthoyl)piperazin-1-yl)-6-acrylamido-1-oxohexan-2-yl)carbamate] | 0.0202 | 4000 |  |  |  | kinact [1, 4]: 0.0202 s⁻¹; kinact/KI ([1]; Table 8): 1500 M⁻¹ s⁻¹
20 | C=CC(=O)NCCCC[C@H](NC(=O)OCc1ccccc1)C(=O)N1CCN(S(=O)(=O)c2cccs2)CC1 [Compound 136, (S)-benzyl(6-acrylamido-1-oxo-1-(4-(thiophen-2-ylsulfonyl)piperazin-1-yl)hexan-2-yl)carbamate] |  |  |  | 0.0247 | 613 | 
21 | C=CC(=O)NC[C@H](NC(=O)OCc1ccccc1)C(=O)N1CCN(S(=O)(=O)c2cccc3c(N(C)C)cccc23)CC1 [Compound 115, (S)-benzyl (3-acrylamido-1-(4-((5-(dimethylamino)naphthalen-1-yl)sulfonyl)piperazin-1-yl)-1-oxopropan-2-yl)carbamate] |  |  |  |  |  | enzyme inactivation, relative observed rate constants (kobs) [1]: no significant enzyme inactivation was observed
